From PMC7220823 (Chemistry (Weinheim an der Bergstrasse, Germany), 2020)

Key:
[1] = parent nucleosides, from previous publications; cited from earlier work
DncV = DncV (Vibrio cholerae serotype O1, UniProt Q9KVG7); assay: DncV-mediated CDN synthesis, kinetics by HPLC; assay type: biochemical
rocR = rocR (Pseudomonas aeruginosa, UniProt Q9HX69); assay: rocR-mediated CDN hydrolysis monitored by HPLC; assay type: biochemical, P. aeruginosa; settings: 100 nM rocR, 10 μM CDN
[2] = 500 μM NTP, 37 °C, HPLC, CIAP-quenched, mean ± SD

DncV, sequence (Q9KVG7 whole entry): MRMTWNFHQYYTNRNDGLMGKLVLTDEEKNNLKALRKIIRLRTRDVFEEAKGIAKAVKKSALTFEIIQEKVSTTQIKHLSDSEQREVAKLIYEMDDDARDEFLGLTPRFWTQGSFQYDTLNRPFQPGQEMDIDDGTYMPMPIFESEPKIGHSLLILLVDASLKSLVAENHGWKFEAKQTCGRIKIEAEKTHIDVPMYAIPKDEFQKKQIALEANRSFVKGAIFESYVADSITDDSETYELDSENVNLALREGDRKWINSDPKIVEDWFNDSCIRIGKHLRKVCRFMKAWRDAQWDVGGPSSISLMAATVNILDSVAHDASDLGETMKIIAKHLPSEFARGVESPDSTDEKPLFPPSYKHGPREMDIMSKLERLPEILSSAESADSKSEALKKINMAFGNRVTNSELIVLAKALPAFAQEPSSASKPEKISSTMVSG
rocR, sequence (Q9HX69 whole entry): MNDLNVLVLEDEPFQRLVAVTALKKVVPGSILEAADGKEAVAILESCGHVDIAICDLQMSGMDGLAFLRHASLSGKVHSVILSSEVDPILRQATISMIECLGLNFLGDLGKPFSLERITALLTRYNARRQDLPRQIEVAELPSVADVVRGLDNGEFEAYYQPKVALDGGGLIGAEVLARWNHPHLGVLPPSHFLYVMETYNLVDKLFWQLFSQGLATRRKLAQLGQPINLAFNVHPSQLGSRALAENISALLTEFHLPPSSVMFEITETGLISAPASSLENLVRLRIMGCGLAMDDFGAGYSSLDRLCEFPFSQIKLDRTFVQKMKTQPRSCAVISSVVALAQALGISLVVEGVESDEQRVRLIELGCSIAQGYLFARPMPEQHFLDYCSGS

Row | SMILES | ε [1] [M⁻¹ cm⁻¹] | λabs^max [1] [nm] | λem^max [1] [nm] | ϕ (emission quantum yield) [1] | ϕε [1] | k1 (formation of first phosphodiester linkage, S to I1) (DncV; [2]) | k2 (cyclization of intermediate I1 to product CDN) (DncV; [2]) | k3 (degradation of intermediate pppNpN to pNpN) (DncV; [2]) | k2/k3 (DncV; product formation versus degradation of the intermediate) | time to complete cleavage by rocR (rocR) [min] | k1 (enzyme/substrate association) (rocR; mean ± SD) [M⁻¹ s⁻¹] | k2 (cleavage reaction) (rocR; mean ± SD) [s⁻¹] | k−1 (enzyme/substrate dissociation) (rocR; mean ± SD) [s⁻¹]
1 | Nc1nc2c([C@@H]3O[C@H](CO)[C@@H](O)[C@H]3O)snc2c(=O)[nH]1 [^tzG] | 4870 | 333 | 459 | 2.5×10^−1 | 1203 |  |  |  |  |  |  |  | 
2 | Nc1nc2c(ncn2[C@@H]2O[C@@H]3COP(=O)(O)O[C@H]4[C@@H](O)[C@H](n5cnc6c(=O)[nH]c(N)nc65)O[C@@H]4COP(=O)(O)O[C@H]3[C@H]2O)c(=O)[nH]1 [c-di-GMP] |  |  |  |  |  | (7.1 ±2.3) ×10^−6 μM^−1s^−1 | (7.4±2.1) ×10^−2 s^−1 | (6.4±0.3) ×10^−4 s^−1 | 116 | ~3 | 3.96e+06 ± 70000 | 0.76 ± 0.03 | 1.15 ± 0.21
